Experimental findings from the C3SDB collision cross section collection are described below.

“And” between values parts separate entries of the source, which are not always exact repeats. Identical values can stand only once.

The conditions of data set [1]: instrument: DT, stepped-field.
For data set [2] the following is noted: [M+H]+; instrument: TW; Major Mix IMS/Tof Calibration Kit (Waters).

With `OCC1OC(OC2(CO)OC(CO)C(O)C2O)C(O)C(O)C1O` (configuration not stated) [(Hex)2], the “collision cross section (N2)” value in data set [1] ([M+Na-H2O]+) was found to be 172.1 Å².
Still for that read-out and setting: for `OCC1OC(OC2C(CO)OC(OC3C(CO)OC(O)C(O)C3O)C(O)C2O)C(O)C(O)C1O` (configuration not stated) [(Hex)3] the value was 204.9 Å².
Turning to `OCC1OC(OC2C(CO)OC(OC3C(CO)OC(OC4C(CO)OC(OC5C(CO)OC(O)C(O)C5O)C(O)C4O)C(O)C3O)C(O)C2O)C(O)C(O)C1O` (configuration not stated) [(Hex)5], the “collision cross section (N2)” value in data set [1] ([M+H-H2O]+) is on record as 282.3 Å²; in data set [1] ([M+Na-H2O]+), 263.1 Å²; in data set [1] ([M+Na]+), 259.5 Å².
For the compound `OCC1OC(OC2C(CO)OC(OC3C(CO)OC(OC4C(CO)OC(OC5C(CO)OC(OC6C(CO)OC(OC7C(CO)OC(OC8C(CO)OC(OC9C(CO)OC(OC%10C(CO)OC(OC%11C(CO)OC(O)C(O)C%11O)C(O)C%10O)C(O)C9O)C(O)C8O)C(O)C7O)C(O)C6O)C(O)C5O)C(O)C4O)C(O)C3O)C(O)C2O)C(O)C(O)C1O` (configuration not stated) [(Hex)11], the “collision cross section (N2)” value in data set [1] ([M+H-H2O]+) is 379.1 Å²; in data set [1] ([M+K]+), 364.8 Å² and 367.1 Å²; in data set [1] ([M+Li]+), 369.7 Å²; in data set [1] ([M+Na]+), 384.6 Å²; in data set [1] ([M+Rb]+), 363.1 Å² and 369.7 Å².
Take `C[C@H](N)C(=O)N[C@@H](C)C(=O)NCC(=O)N[C@@H](Cc1c[nH]cn1)C(=O)N[C@@H](CC(=O)O)C(=O)NCC(=O)N[C@@H](CCCCN)C(=O)O` [AAGHDGK]: the “collision cross section (N2)” value in data set [1] ([M+H]+) turned out to be 249 Å².
The same measure, in the same setting: under `CC(C)C[C@H](NC(=O)[C@H](CC(=O)O)NC(=O)[C@H](C)N)C(=O)N[C@@H](C)C(=O)N[C@@H](CCCCN)C(=O)O` [ADLAK] stands 228.3 Å²; under `CCC(C)[C@H](NC(=O)[C@H](CC(C)C)NC(=O)[C@H](CC(C)C)NC(=O)[C@H](CCC(=O)O)NC(=O)[C@H](CC(N)=O)NC(=O)[C@H](C)N)C(=O)N[C@@H](CC(N)=O)C(=O)N[C@H](C(=O)N[C@@H](CCCCN)C(=O)O)C(C)C` (some centres not stated) [ANELLINVK], 326.8 Å².
For `CC(=O)Nc1cccc(O)c1` [Metacetamol], the “collision cross section (N2)” value in data set [2] was 129.8 Å².
The same measure, in the same setting: under `CC(=O)OC1CC[C@H]2[C@@H]3CC[C@H]4CC(=O)C=C(C)[C@]4(C)[C@H]3CC[C@]12C` (some centres not stated) [Metenolone acetate] stands 187.6 Å²; under `Cc1ccccc1-n1c(C)nc2ccccc2c1=O` [Methaqualone], 155 Å².
Still for that read-out and setting: under `CCNC1(c2cccc(OC)c2)CCCCC1=O` (configuration not stated) [Methoxetamine] stands 159.6 Å²; under `CCN(CC)CCNC(=O)c1cc(Cl)c(N)cc1OC` [Metoclopramide], 173.2 Å²; under `CN1CCN2c3ccccc3Cc3ccccc3C2C1` (configuration not stated) [Mianserin], 164.5 Å².
Consider `Cc1[nH]c(=O)c(C#N)cc1-c1ccncc1` [Milrinone], for which the “collision cross section (N2)” value in data set [2] worked out at 150.4 Å².
Same read-out and setting: for `c1ccc2c(c1)Cc1cccnc1N1CCNCC21` (configuration not stated) [Mirtazapine-M N-desmethyl] the value was 156.9 Å².
Consider `CN1CCN2c3ncccc3Cc3ccccc3C2C1` (configuration not stated) [Mirtazapine], for which, in data set [2], the “collision cross section (N2)” value was found to be 161 Å².
Same read-out and setting: for `Oc1ccc2c3c1OC1C(O)C=CC4C(C2)NCCC341` (configuration not stated) [Morphine-M Nor] the value was 161.5 Å²; for `COc1ccc(N2CCNCC2)cc1` [N-(p-Methoxyphenyl)piperazine (pMeOPP)], 141.9 Å²; for `C=CCN1CC[C@]23c4c5ccc(O)c4O[C@H]2C(=O)CC[C@@]3(O)[C@H]1C5` [Naloxone], 171.8 Å².
`C[C@]12CC[C@H]3[C@@H](CCC4=CC(=O)CC[C@@H]43)[C@@H]1CC[C@@H]2O` [Nandrolone]: in data set [2], the “collision cross section (N2)” value was found to be 167.5 Å².
The same measure, in the same setting: for `COCCOC(=O)C1=C(C)NC(C)=C(C(=O)OC(C)C)C1c1cccc([N+](=O)[O-])c1` (configuration not stated) [Nimodipine] the value was 197.8 Å².
On the same count and under the same terms, under `CN/C(=C\[N+](=O)[O-])NCCSCc1csc(CN(C)C)n1` [Nizatidine] stands 168.4 Å².
The same measure, in the same setting: for `COc1ccc2c(c1OC)C(=O)O[C@@H]2[C@H]1c2c(cc3c(c2OC)OCO3)CCN1C` [Noscapine] the value was 194.3 Å²; for `Cc1cc2c(s1)Nc1ccccc1N=C2N1CCN(C)CC1` [Olanzapine], 175.5 Å².
For the compound `NC(=O)N1c2ccccc2CC(=O)c2ccccc21` [Oxcarbazepine], in data set [2], the “collision cross section (N2)” value is recorded as 153.8 Å².
Same read-out and setting: for `COc1ccc(Cc2nccc3cc(OC)c(OC)cc23)cc1OC` [Papaverine] the value was 185.3 Å²; for `Fc1ccc([C@@H]2CCNC[C@H]2COc2ccc3c(c2)OCO3)cc1` [Paroxetine], 183.2 Å².
Same read-out and setting: under `CC(C)=CCN1CCC2(C)c3cc(O)ccc3CC1C2C` (configuration not stated) [Pentazocine] stands 173.5 Å²; under `CCCC(NC)C(=O)c1ccccc1` (configuration not stated) [Pentedrone], 145.7 Å²; under `CCN(CC)CCOCCOC(=O)C1(c2ccccc2)CCCC1` [Pentoxyverine], 175.5 Å².
Same read-out and setting: for `Cc1cc(=O)n(-c2ccccc2)n1C` [Phenazone] the value was 137.7 Å².
In the case of `CC1NCCOC1c1ccccc1` (configuration not stated) [Phenmetrazine], the “collision cross section (N2)” value in data set [2] is given as 138.9 Å².
The same measure, in the same setting: for `CCC(c1ccccc1)c1c(O)c2ccccc2oc1=O` (configuration not stated) [Phenprocoumon] the value was 160 Å²; for `O=c1[nH]c2ccccc2n1C1CCN(CCCC(c2ccc(F)cc2)c2ccc(F)cc2)CC1` [Pimozide], 214.4 Å²; for `CCN(CC)CCOC(=O)c1ccc(N)cc1` [Procaine], 154.6 Å².
For the compound `OC(CCN1CCCC1)(c1ccccc1)C1CCCCC1` (configuration not stated) [Procyclidine], in data set [2], the “collision cross section (N2)” value came out at 172.6 Å².
The same measure, in the same setting: for `CC(C)NC(=N)NC(=N)Nc1ccc(Cl)cc1` [Proguanil] the value was 161.3 Å²; for `CN(C)CCCN1c2ccccc2Sc2ccccc21` [Promazine], 161.5 Å².
Still for that read-out and setting: for `CCCNCC(O)COc1ccccc1C(=O)CCc1ccccc1` (configuration not stated) [Propafenone] the value was 178.5 Å²; for `CNCCCC1c2ccccc2C=Cc2ccccc21` [Protriptyline], 162.8 Å²; for `CN(C)CCc1c[nH]c2cccc(O)c12` [Psilocin], 144.8 Å².
On the same count and under the same terms, under `C=C[C@H]1C[N@@]2CC[C@H]1C[C@@H]2[C@@H](O)c1ccnc2ccc(OC)cc12` [Quinidine] stands 175.8 Å²; under `C=C[C@H]1C[N@@]2CC[C@H]1C[C@H]2[C@H](O)c1ccnc2ccc(OC)cc12` [Quinine], 177.4 Å²; under `CC(C)(C)NCC(O)c1ccc(O)c(CO)c1` (configuration not stated) [Salbutamol], 160 Å².
`CN1[C@@H]2C[C@@H](OC(=O)[C@H](CO)c3ccccc3)C[C@H]1[C@@H]1O[C@@H]12` [Scopolamine]: the “collision cross section (N2)” value in data set [2] was found to be 171.1 Å².
Still for that read-out and setting: for `C#CCN(C)[C@H](C)Cc1ccccc1` [Selegiline] the value was 142.1 Å²; for `O=c1[nH]ccn1CCN1CCC(c2cn(-c3ccc(F)cc3)c3ccc(Cl)cc23)CC1` [Sertindol-M dehydro], 213.8 Å²; for `O=C(O)c1cc(/N=N/c2ccc(S(=O)(=O)Nc3ccccn3)cc2)ccc1O` [Sulfasalazine], 199.7 Å².
Still for that read-out and setting: under `CCN1CCCC1CNC(=O)c1cc(S(N)(=O)=O)ccc1OC` (configuration not stated) [Sulpiride] stands 184.3 Å².
Regarding `CC(C)(C)c1ccc(C(O)CCCN2CCC(C(O)(c3ccccc3)c3ccccc3)CC2)cc1` (configuration not stated) [Terfenadine], the “collision cross section (N2)” value in data set [2] is recorded as 229.8 Å².
On the same count and under the same terms, for `CCCCNc1ccc(C(=O)OCCN(C)C)cc1` [Tetracaine] the value was 173.1 Å²; for `CN1c2ccccc2C(NCCCCCCC(=O)O)c2ccc(Cl)cc2S1(=O)=O` (configuration not stated) [Tianeptine], 197 Å².
Regarding `CN1CCN(CCCN2c3ccccc3Sc3ccc(C(F)(F)F)cc32)CC1` [Trifluoperazine], the “collision cross section (N2)” value in data set [2] is reported as 188.1 Å².
`CC(CN(C)C)CN1c2ccccc2CCc2ccccc21` (configuration not stated) [Trimipramine]: the “collision cross section (N2)” value in data set [2] is reported as 171.2 Å².
As for `COc1ccc(CCNCCCC(C#N)(c2ccc(OC)c(OC)c2)C(C)C)cc1OC` (configuration not stated) [Verapamil-M nor], in data set [2], the “collision cross section (N2)” value came out at 207.3 Å².
Still for that read-out and setting: for `Cc1cccc(C)c1NC1=NCCCS1` [Xylazine] the value was 147.9 Å²; for `Cc1cc(C(C)(C)C)cc(C)c1CC1=NCCN1` [Xylometazoline], 170.4 Å².
On the same count and under the same terms, under `COC(=O)[C@@H]1[C@H]2C[C@H]3c4[nH]c5ccccc5c4CCN3C[C@@H]2CC[C@@H]1O` [Yohimbine] stands 186.5 Å²; under `Cc1ccc2nc(-c3ccc(C(=O)O)cc3)c(CC(=O)N(C)C)n2c1` [Zolpidem-M Carboxylic acid], 184.4 Å²; under `CN1CCN(C(=O)OC2c3nccnc3C(=O)N2c2ccc(Cl)cn2)CC1` (configuration not stated) [Zopiclone], 188.5 Å².
On the same count and under the same terms, under `FC(F)(F)c1cccc(N2CCNCC2)c1` [m-Trifluorophenylpiperazine (TFMPP)] stands 151.1 Å².
